From patent publication US10183013B2, “Cyclic sulfonamide containing derivatives as inhibitors of hedgehog signaling pathway” (NantBioScience, Inc., priority 2012, dated 2019)
Read-outs that look alike come from different tables or passages of the source.

How the values were obtained:
[1] = tested on: Hedgehog signalling (Gli-bla NIH3T3 cells, mShh stimulated); test: Hedgehog signalling inhibition assay (Gli-Bla reporter assay in NIH 3T3 cells); assay type: cell-based
Description: Hedgehog signalling inhibition assays. The following table 2 represents the average EC50 values for particular compounds of the inventions. Gli-bla NIH3T3 cells (7500 cells/well) were plated the day prior to the assay in a 384-well and 96-format in complete growth medium. […] Cells were stimulated with mShh for 24 hours and then loaded with LiveBLAzer™-FRET B/G Substrate for 3 hours. Emission values at 460 nm and 530 nm were obtained using a standard fluorescence plate reader and the 460/530 Ratios plotted for each treatment (n=4 for each data point).
J. Cancer, 2011, 30(7):472-81).

SMO = target: T1, SMO (Homo sapiens, UniProt Q99835); test: SMO BODIPY-CYC binding assay using HEK293H cells
T1 construct: host or cells: HEK293H cells

[2] = Mus musculus, NIH3T3, 24 h, read-out: EC50

T1 sequence (Q99835 28-787): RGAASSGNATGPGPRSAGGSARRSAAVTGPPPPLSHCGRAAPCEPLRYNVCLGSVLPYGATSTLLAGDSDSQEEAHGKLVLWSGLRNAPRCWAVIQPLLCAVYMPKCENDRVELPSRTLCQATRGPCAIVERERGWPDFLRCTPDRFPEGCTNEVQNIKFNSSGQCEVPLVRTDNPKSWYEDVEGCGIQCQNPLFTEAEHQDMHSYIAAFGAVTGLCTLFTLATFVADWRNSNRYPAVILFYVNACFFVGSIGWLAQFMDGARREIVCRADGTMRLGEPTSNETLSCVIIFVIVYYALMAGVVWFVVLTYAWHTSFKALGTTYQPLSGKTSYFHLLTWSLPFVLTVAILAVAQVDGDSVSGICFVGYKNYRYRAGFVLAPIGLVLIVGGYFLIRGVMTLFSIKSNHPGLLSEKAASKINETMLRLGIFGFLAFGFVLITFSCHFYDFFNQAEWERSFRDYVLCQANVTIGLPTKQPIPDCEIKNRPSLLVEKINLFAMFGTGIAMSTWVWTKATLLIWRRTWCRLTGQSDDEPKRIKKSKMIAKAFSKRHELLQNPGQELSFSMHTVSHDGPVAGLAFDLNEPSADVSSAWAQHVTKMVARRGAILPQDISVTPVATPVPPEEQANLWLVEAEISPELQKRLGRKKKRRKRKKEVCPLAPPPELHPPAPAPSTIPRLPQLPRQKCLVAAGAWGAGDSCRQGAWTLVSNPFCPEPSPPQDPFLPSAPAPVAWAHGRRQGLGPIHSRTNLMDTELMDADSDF

SMILES	EC50 [1, 2] [nM]	EC50 ([1]; NIH 3T3 cells, read-out: Gli-Bla reporter assay (EC50)) [nM]	EC50 (SMO) [nM]
CC(=O)Nc1cc(NC(=O)c2ccc(N3CCCS3(=O)=O)cc2Cl)ccc1Cl [Example 140]	1000		
O=C(Nc1ccc(Cl)c(Oc2cccc(Cl)c2)c1)c1ccc(N2CCOCS2(=O)=O)cc1Cl [Example 137]	< 10		
O=C(Nc1ccc(Cl)c(-c2nccc3ncccc23)c1)c1ccc(N2CCCS2(=O)=O)c(Cl)c1 [Example 113]	< 10		
Cc1ccc(NC(=O)c2ccc(N3CCCS3(=O)=O)cc2Cl)cc1-c1nccc2ccccc12 [Example 111]	< 10		
Cc1nn(-c2ccccc2)c(C)c1/C=N/N1CCN(Cc2ccccc2)CC1 [Sant-1, reference compound]		5	0.592
